Source: BindingDB's records for doi:10.1021/acschembio.6b00560 (Vanderbilt Institute of Chemical Biology, Vanderbilt …, 2016)

How the values were obtained:
[1] = target: T1, Prostaglandin G/H synthase 1 (Ovis aries, UniProt P05979); test: COX Enzyme Inhibition Assay (Table 1)
T1 sequence (P05979 whole entry): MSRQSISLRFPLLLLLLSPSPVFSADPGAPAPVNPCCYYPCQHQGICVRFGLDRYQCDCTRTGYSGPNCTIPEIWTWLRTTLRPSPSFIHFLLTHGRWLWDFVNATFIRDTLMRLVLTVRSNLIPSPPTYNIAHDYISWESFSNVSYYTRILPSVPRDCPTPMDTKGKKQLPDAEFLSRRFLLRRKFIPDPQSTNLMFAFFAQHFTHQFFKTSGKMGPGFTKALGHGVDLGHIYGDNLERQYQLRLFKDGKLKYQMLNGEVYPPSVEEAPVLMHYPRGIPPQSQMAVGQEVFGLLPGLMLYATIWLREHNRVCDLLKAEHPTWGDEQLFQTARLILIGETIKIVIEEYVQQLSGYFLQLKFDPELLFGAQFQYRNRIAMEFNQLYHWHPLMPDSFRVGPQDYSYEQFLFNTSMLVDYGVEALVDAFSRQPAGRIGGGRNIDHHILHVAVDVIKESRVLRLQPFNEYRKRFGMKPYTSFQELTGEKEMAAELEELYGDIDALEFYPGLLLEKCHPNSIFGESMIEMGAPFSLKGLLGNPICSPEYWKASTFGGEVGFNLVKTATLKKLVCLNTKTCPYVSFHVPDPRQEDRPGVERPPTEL

[2] = target: T2, Prostaglandin G/H synthase 2 (Mus musculus, UniProt Q05769); test: COX Enzyme Inhibition Assay (Table 1)
T2 sequence (Q05769 whole entry): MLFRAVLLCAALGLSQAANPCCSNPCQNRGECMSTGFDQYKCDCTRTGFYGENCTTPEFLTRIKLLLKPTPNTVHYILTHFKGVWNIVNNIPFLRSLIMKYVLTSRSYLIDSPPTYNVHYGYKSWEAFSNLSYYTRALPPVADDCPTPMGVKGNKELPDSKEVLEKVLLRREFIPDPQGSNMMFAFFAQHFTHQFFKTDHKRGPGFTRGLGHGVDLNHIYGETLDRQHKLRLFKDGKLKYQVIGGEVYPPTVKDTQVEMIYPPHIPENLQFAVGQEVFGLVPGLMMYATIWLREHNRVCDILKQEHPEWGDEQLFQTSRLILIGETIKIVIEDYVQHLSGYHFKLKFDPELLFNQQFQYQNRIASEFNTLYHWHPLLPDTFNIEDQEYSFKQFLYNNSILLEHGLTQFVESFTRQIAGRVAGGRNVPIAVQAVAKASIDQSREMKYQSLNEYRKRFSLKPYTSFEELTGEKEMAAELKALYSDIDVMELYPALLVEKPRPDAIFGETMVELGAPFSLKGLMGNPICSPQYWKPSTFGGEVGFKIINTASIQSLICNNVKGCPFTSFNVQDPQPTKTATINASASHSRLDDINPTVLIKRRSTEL

Compound | IC50 [1] | IC50 [2]
COc1ccc2c(c1)c(CC(=O)O[C@@H](C(=O)O[C@H]1C[C@@]3(O)[C@@H](OC(=O)c4ccccc4)[C@@H]4[C@]5(OC(C)=O)CO[C@@H]5C[C@H](O)[C@@]4(C)C(=O)[C@H](OC(C)=O)C(=C1C)C3(C)C)[C@@H](NC(=O)c1ccccc1)c1ccccc1)c(C)n2C(=O)c1ccc(Cl)cc1 [Cytotoxic conjugates, 1] | > 25 µM | > 25 µM
COc1ccc2c(c1)c(CC(=O)NCCCCOC(=O)CCC(=O)O[C@@H](C(=O)O[C@H]1C[C@@]3(O)[C@@H](OC(=O)c4ccccc4)[C@@H]4[C@]5(OC(C)=O)CO[C@@H]5C[C@H](O)[C@@]4(C)C(=O)[C@H](OC(C)=O)C(=C1C)C3(C)C)[C@@H](NC(=O)c1ccccc1)c1ccccc1)c(C)n2C(=O)c1ccc(Cl)cc1 [Cytotoxic conjugates, 3] | > 25 µM | 
COc1ccc2c(c1)c(CC(=O)Nc1ccc(CNC(=O)CCC(=O)O[C@@H](C(=O)O[C@H]3C[C@@]4(O)[C@@H](OC(=O)c5ccccc5)[C@@H]5[C@]6(OC(C)=O)CO[C@@H]6C[C@H](O)[C@@]5(C)C(=O)[C@H](OC(C)=O)C(=C3C)C4(C)C)[C@@H](NC(=O)c3ccccc3)c3ccccc3)cc1)c(C)n2C(=O)c1ccc(Cl)cc1 [Cytotoxic conjugates, 4] | > 25 µM | 
COc1ccc2c(c1)c(CC(=O)NCCOC(=O)\C=C(C)/C=C/C=C(C)/C=C/C1=C(C)CCCC1(C)C)c(C)n2C(=O)c1ccc(Cl)cc1 [Cytotoxic conjugates, 5] | > 25 µM | 
COc1ccc2c(c1)c(CC(=O)NCCNC(=O)/C=C(C)/C=C/C=C(C)/C=C/C1=C(C)CCCC1(C)C)c(C)n2C(=O)c1ccc(Cl)cc1 [Cytotoxic conjugates, 6] | > 25 µM | 0.1 µM
COc1ccc2c(c1)c(CC(=O)NCCNC(=O)/C=C(C)/C=C/C=C(C)\C=C\C1=C(C)CCCC1(C)C)c(C)n2C(=O)c1ccc(Cl)cc1 [Cytotoxic conjugates, 7] | > 25 µM | 0.6 µM
COc1ccc2c(c1)c(CC(=O)NCCNC(=O)CCC(=O)Nc1ccc(S(=O)(=O)Nc3nccs3)cc1)c(C)n2C(=O)c1ccc(Cl)cc1 [Cytotoxic conjugates, 8] | > 25 µM | 
COc1ccc2c(c1)c(CCNC(=O)CCC(=O)Nc1ccc(S(=O)(=O)Nc3nccs3)cc1)c(C)n2Cc1ccc(Br)cc1 [Cytotoxic conjugates, 9] | > 25 µM | > 25 µM
CCC1(O)C(=O)OCc2c1cc1n(c2=O)Cc2cc3cc(OC(=O)CCC(=O)OCCNC(=O)Cc4c(C)n(C(=O)c5ccc(Cl)cc5)c5ccc(OC)cc45)ccc3nc2-1 (stereo unspecified) [Cytotoxic conjugates, 10] | > 25 µM | > 25 µM
COc1ccc2c(c1)c(CC(=O)NCCNC(=O)CCC(=O)O[C@@H]1c3cc4c(cc3[C@H](c3cc(OC)c(OC)c(OC)c3)[C@@H]3C(=O)OCC13)OCO4)c(C)n2C(=O)c1ccc(Cl)cc1 (stereo partly specified) [Cytotoxic conjugates, 11] | > 25 µM | 0.47 µM
COc1ccc2c(c1)c(CC(=O)NCCCCOC(=O)CCC(=O)O[C@@H]1c3cc4c(cc3[C@H](c3cc(OC)c(OC)c(OC)c3)[C@@H]3C(=O)OCC13)OCO4)c(C)n2C(=O)c1ccc(Cl)cc1 (stereo partly specified) [Cytotoxic conjugates, 14] | > 25 µM | 
COc1ccc2c(c1)c(CC(=O)NCc1ccc(CNC(=O)CCC(=O)O[C@@H]3c4cc5c(cc4[C@H](c4cc(OC)c(OC)c(OC)c4)[C@@H]4C(=O)OCC34)OCO5)cc1)c(C)n2C(=O)c1ccc(Cl)cc1 (stereo partly specified) [Cytotoxic conjugates, 15] | > 25 µM | 
COc1ccc2c(c1)c(CC(=O)NCCCCNC(=O)CCC(=O)OC1CCCCC1)c(C)n2C(=O)c1ccc(Cl)cc1 [Cytotoxic conjugates, 16] | > 25 µM | 
COc1cc([C@@H]2c3cc4c(cc3[C@H](O)[C@H]3COC(=O)[C@H]23)OCO4)cc(OC)c1OC [podophyllotoxin] | > 25 µM | > 25 µM
